Target: EZH1 (Homo sapiens, UniProt Q92800)
Assay: histone methyltransferase selectivity assay
Type: biochemical

Sequence of EZH1 (Q92800 whole entry): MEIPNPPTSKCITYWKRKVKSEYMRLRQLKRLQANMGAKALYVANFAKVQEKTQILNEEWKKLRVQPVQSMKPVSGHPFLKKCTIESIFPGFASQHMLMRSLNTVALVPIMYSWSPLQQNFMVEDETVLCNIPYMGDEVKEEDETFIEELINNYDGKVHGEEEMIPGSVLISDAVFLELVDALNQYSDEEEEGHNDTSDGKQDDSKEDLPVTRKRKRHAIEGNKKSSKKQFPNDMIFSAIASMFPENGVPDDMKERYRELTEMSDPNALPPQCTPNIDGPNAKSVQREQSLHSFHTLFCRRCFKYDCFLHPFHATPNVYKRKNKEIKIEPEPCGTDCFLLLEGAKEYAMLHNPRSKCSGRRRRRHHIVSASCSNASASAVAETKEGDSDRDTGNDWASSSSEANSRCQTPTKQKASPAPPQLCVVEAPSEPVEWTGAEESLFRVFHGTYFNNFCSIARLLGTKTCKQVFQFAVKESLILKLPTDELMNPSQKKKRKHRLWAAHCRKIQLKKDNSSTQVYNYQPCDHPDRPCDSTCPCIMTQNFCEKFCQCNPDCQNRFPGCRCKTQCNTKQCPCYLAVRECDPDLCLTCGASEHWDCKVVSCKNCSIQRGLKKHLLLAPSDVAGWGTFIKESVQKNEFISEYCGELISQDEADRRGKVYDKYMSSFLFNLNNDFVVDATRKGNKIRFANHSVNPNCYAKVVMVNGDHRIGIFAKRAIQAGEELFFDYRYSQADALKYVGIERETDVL
Sequence of EZH1 (O75530 2-441 partner): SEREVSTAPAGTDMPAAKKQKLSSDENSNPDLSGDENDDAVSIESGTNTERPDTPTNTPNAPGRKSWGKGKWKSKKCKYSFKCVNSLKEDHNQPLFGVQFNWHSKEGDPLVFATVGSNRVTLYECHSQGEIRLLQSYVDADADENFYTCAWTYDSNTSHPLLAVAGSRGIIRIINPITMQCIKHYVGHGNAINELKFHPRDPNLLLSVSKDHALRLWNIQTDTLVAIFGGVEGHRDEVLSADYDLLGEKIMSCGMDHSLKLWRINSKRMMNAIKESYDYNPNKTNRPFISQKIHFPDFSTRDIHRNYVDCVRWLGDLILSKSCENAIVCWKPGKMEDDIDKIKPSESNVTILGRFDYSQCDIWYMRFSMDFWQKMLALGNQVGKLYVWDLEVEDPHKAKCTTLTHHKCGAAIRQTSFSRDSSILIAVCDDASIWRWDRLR
Sequence of EZH1 (Q15022 whole entry partner): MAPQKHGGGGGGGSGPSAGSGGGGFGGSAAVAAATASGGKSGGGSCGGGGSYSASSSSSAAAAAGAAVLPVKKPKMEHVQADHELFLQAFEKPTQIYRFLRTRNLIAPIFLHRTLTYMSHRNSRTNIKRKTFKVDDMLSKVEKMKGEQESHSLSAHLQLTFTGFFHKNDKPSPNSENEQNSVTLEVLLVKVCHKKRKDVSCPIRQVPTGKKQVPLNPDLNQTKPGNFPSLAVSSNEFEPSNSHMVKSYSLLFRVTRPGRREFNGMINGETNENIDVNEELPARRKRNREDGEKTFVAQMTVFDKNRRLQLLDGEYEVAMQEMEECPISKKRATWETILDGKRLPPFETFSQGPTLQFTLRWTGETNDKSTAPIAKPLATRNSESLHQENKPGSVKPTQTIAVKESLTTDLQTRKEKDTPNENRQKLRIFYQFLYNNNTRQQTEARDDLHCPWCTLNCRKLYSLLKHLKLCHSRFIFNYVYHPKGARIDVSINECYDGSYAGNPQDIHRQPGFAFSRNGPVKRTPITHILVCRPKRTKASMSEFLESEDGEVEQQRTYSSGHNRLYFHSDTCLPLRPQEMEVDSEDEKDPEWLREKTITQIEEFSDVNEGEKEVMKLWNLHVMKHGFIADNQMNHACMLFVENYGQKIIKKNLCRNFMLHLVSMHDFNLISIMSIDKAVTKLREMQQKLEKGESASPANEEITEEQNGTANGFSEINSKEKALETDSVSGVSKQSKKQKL

SMILES: Cc1cc(C)c(CNC(=O)c2cc(-c3ccc(N4CCN(C)CC4)nc3)cc3c2c(C)cn3C(C)C)c(=O)[nH]1 [GSK503]
- Ki: 636 nM

Source: article PMC3681809 (Cancer cell, 2013)
